Source: article PMC9321894, “Design and Anticancer Properties of New Water-Soluble Ruthenium–Cyclopentadienyl Complexes” (Pharmaceuticals, 2022)
Marks after values point to notes of the source that are not given here.

Columns and labels:
[1] = test system: MDAMB231 triple-negative breast cancer cells; test: MTT cytotoxicity assay, MDAMB231; format: cell-based, human; settings: MDAMB231, 72 h, mean ± SD n = 3
Procedure: The cytotoxic activity of all complexes was screened against A2780 (ovarian, Sigma-Aldrich, Lisboa, Portugal), MDAMB231 (breast, triple negative, ATCC), and HT29 (colon, ATCC) human cancer cells. Cells were grown in RPMI 1640 (A2780) or DMEM containing GlutaMax-I (MDAMB231), or McCoy’s (HT29) supplemented with 10% FBS and 1% penicillin/streptomycin (Invitrogen, Lisboa, Portugal). All cell lines were kept in a CO2 incubator (Heraeus, Hanau, Germany) with 5% CO2 at 37 °C in a humidified atmosphere. Cell viability was measured using the colorimetric MTT (3-(4,5-dimethylthiazol-2-yl)-2,5-diphenyltetrazolium bromide) assay. For the assays, cells were seeded in 200 μL of complete medium in 96-well plates and incubated at 37 °C for 24 h prior to complex treatment to allow cell adherence. The stock solutions in water (20 mM) of the complexes were freshly prepared and used for sequential dilutions in medium within the concentration range of 10^−10–10^−4 M. Cisplatin was also included in this study as a positive control. After careful removal of the medium, […] of a serial dilution of compounds in fresh medium was added to the cells, and incubation was carried out for 72 h at 37 °C. At the end of the treatment, the medium was discarded, and the cells were incubated with […] of an MTT solution in PBS (0.5 mg mL^−1). After 3 h incubation, medium was removed, and DMSO was added to solubilize the purple formazan crystals formed. The absorbance at 570 nm was measured using a plate spectrophotometer (Power Wave Xs, Bio-Tek, Winooski, VT, USA). Each experiment was repeated at least three times and each concentration tested in at least six replicates. The IC50 values were calculated from dose–response curves analyzed with the GraphPad Prism software (version 5.0).

[2] = Stability in water in presence of air (UV-vis, 1H and 31P NMR); format: physicochemical
Procedure: The stability of all the complexes in water was evaluated by ^31P NMR and UV–visible spectroscopies. Generally, a 5 mm NMR tube was charged in the air with the 10 mg of each complex and D2O (0.8 mL). ^1H NMR and ^31P NMR were monitored for four days to evaluate if there was any decomposition product. Decomposition/instability of the compound can be assessed by the disappearance of the NMR signals and/or by the appearance of new signals that could not be assigned to the known complex, beyond the appearance of free mTPPMS phosphine signals. Any eventual changes in the charge transfer bands between ruthenium and ligands were followed by UV–visible in the 300–900 nm range.

[3] = biological target: T1, fatty-acid-free human serum albumin (HSA^faf) (Homo sapiens, UniProt P02768); test: Fluorescence quenching of HSA^faf (Trp214); format: binding; settings: for KSV: pH 7.4
T1 construct: purchased Sigma-Aldrich A3782
Procedure: Human serum albumin (HSA) was dissolved in 10 mM HEPES buffer (pH 7.4). The HSA concentration was determined spectrophotometrically using the absorbance value at 280 nm (ε280 = 36,500 M^−1cm^−1). Complex 6 was dissolved in 10 mM HEPES buffer (pH 7.4). A series of ruthenium-protein batch solutions were prepared by adding different concentrations of ruthenium solutions to the protein solution prepared previously. For fluorescence acquisition, the final HSA concentration was 2.5 μM, and the ruthenium were 0, 0.6, 1.2, 1.8, 2.5, 5, 7.5, 10, 12.5, 15, 17.5, 20, 22.5, 25, 27.5, 30, 32.5, 35, 37.5, 40, 42.5, and 45 μM. […] The reference solutions were prepared following the procedures described above without protein.
Steady-state fluorescence measurements were carried out with a Fluorolog Model-3.22 spectrofluorometer from Horiba Jobin Yvon at 293.15, 298.15, and 310.15 K. All measurements were performed in Hellma® semi-micro fluorescence cuvettes (Suprasil® quartz, path length 10 × 4 mm, chamber volume […]) with the 10 mm path length for the excitation of the sample. The excitation and emission slit widths were fixed at 4.0 nm, and the excitation wavelength was set at 295 nm to selectively excite the tryptophan 214 residue. The emission spectra were recorded from 305 to 550 nm. Solutions of ruthenium complex in 10 mM HEPES buffer pH 7.4 in corresponding concentrations were used as reference for the measured fluorescence spectra of protein-complex mixtures. […] The fluorescence intensities were corrected for the absorption of the exciting light and re-absorption of the emitted light to decrease the inner filter effect using UV–visible absorption data recorded for each sample on a Jasco V-660 spectrophotometer in the range of 260 to 900 nm with 1 cm path quartz cells.
Fluorescence quenching of HSA by complex [Ru(η5-C5H5)(mTPPMS)(bopy)][CF3SO3] (6) […]
F0 = 1 + K τ (Q) = 1 + K (Q) (S1) where F0 and F are the fluorescence intensities of HSA in the absence and presence of the quencher [Ru(η5-C5H5)(mTPPMS)(bopy)][CF3SO3]; [Q] is the quencher concentration; Kq is the bimolecular quenching constant; t0 is the average fluorescence lifetime of HSA in the absence of the quencher, and KSV is the Stern-Volmer quenching constant.
Figure S10. Stern-Volmer plots at pH7.4 for the quenching of (A) HSA and (B) HSA faf by [Ru(η5-C5H5)(mTPPMS)(bopy)][CF3SO3] at three temperatures (◆) 293 K, (●) 298 K, (▲) 310 K.
log(F0 − F) = log K + nlog[Q] ( S2) […]
where Ka is the association constant for a site and n is the number of binding sites by protein.
Figure S11. Double-log plots for the fluorescence quenching for the (A) {HSA-[Ru(η5-C5H5)(mTPPMS)(bopy)][CF3SO3]} and (B) {HSAfaf-[Ru(η5-C5H5)(mTPPMS)(bopy)][CF3SO3]} systems at three temperatures (◆) 293 K, (●) 298 K, (▲) 310 K. […]

T1 sequence (P02768 25-609): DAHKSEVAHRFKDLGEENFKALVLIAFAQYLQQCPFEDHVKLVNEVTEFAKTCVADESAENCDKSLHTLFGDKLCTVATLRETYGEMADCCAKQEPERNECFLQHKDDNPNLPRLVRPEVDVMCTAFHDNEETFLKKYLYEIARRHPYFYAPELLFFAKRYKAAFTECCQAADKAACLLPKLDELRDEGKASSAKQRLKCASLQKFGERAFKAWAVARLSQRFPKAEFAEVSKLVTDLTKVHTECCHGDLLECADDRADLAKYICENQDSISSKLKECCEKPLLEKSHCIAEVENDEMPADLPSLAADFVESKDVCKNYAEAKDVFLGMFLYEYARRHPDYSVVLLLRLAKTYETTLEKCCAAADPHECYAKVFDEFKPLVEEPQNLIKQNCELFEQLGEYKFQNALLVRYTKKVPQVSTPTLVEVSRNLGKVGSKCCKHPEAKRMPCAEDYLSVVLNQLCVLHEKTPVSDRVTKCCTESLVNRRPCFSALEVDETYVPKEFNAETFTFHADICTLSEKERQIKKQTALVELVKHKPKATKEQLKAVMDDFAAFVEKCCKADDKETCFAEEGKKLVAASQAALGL

In the case of “[RuCp(mTPPMSNa)(bopy)][CF3SO3] [Compound 6]”, the IC50 [1] is reported as 13.4 ± 0.4 µM, the “Changes in the UV–vis spectra in aqueous solution” value ([2]; over 4 days at 37 °C) is reported as “insignificant” and the “Stability in water, Time (Days)” value ([2]; water, in presence of air, 25 °C, time without hydrolysis) is reported as >4 ^[b] Days. For the same substance, the “Ka (association constant for a site)” value ([3]; 293.15 K) was “(57.293 ± 1.27) × 10^4 L mol^−1”, the Kq ([3]; 293.15 K) was “(28.7 ± 0.49) × 10^12 L mol^−1 s^−1” and the “n (number of binding sites)” value ([3]; 293.15 K) was 1.048. For the same substance, the ΔG ([3]; 293.15 K) was -37.426 kcal/mol, the KSV ([3]; 293.15 K) was “(28.7 ± 0.49) × 10^4 L mol^−1” and the “Ka (association constant for a site)” value ([3]; 298.15 K) was “(66.764 ± 1.29) × 10^4 L mol^−1”. For the same substance, the Kq ([3]; 298.15 K) was “(40.7 ± 0.75) × 10^12 L mol^−1 s^−1”, the “n (number of binding sites)” value ([3]; 298.15 K) was 1.023 and the ΔG ([3]; 298.15 K) was -37.899 kcal/mol. For the same substance, the KSV ([3]; 298.15 K) was “(40.7 ± 0.75) × 10^4 L mol^−1”, the “Ka (association constant for a site)” value ([3]; 310.15 K) was “(80.668 ± 1.17) × 10^4 L mol^−1” and the Kq ([3]; 310.15 K) was “(72.6 ± 1.02) × 10^12 L mol^−1 s^−1”. The “n (number of binding sites)” value ([3]; 310.15 K) was 1.006, the ΔG ([3]; 310.15 K) was -39.034 kcal/mol and the KSV ([3]; 310.15 K) was “(72.6 ± 1.02) × 10^4 L mol^−1”. For the same substance, the ΔH ([3]; Van't Hoff, 293.15-310.15 K) was 40.51 (R^2 = 0.9938) kJ mol^−1, the ΔS ([3]; Van't Hoff, 293.15-310.15 K) was 396.16 J mol^−1 K^−1 and the “Quenching of fluorescence intensity” value ([3]; highest Ru concentration (45 μM), pH 7.4, incubation at 298 K for 24 h) was 97%.
